Measured values: US8729030B2 (Affymax, Inc., priority 2003, dated 2014)
Bridges are numbered along the chain shown (N, C = ends). Where no end group is shown, it is not given here. [ ]: non-standard residue; d: D form. 1Nal = N[C@@H](Cc1cccc2ccccc12)C(=O)O; Sar = CNCC(=O)O

Experiments:
[1] = target: chimeric receptor comprising the extra-cellular portion of the human EPO receptor to the intra-cellular portion of the human GCSF receptor; experiment: Reporter assay (Baf3/EpoR/GCSFR fos/lux luciferase); format: cell-based; settings: Table 2; Baf3/EpoR/GCSFR fos/lux cells, 4 h
Description: This assay is based upon a on a murine pre-B-cell line derived reporter cell, Baf3/EpoR/GCSFR fos/lux. This reporter cell line expresses a chimeric receptor comprising the extra-cellular portion of the human EPO receptor to the intra-cellular portion of the human GCSF receptor. This cell line is further transfected with a fos promoter-driven luciferase reporter gene construct. Activation of this chimeric receptor through addition of erythropoietic agent results in the expression of the luciferase reporter gene, and therefore the production of light upon addition of the luciferase substrate luciferin. Thus, the level of EPO-R activation in such cells may be quantitated via measurement of luciferase activity.
The Baf3/EpoR/GCSFR fos/lux cells are cultured in DMEM/F12 medium (Gibco) supplemented with 10% fetal bovine serum (FBS; Hyclone), 10% WEHI-3 supernatant (the supernatant from a culture of WEHI-3 cells, ATCC #TIB-68), and penicillin/streptomycin. […] Following a 5-minute incubation, light emission is measured on a Packard Topcount Luminometer (Packard Instrument Co., Downers Grove, Ill.). Light counts are plotted relative to test peptide concentration and analysed using Graph Pad software. The concentration of test peptide that results in a half-maximal emission of light is recorded as the EC50 [See Table 2: Reporter EC50]. […]

[2] = test system: human, bone marrow derived CD34+ cells; experiment: C/BFU-e assay (erythroid colony formation); format: cell-based; settings: Table 2; colonies 90% of maximum relative to EPO control, 14 days
Description: EPO-R signaling stimulates the differentiation of bone marrow stem cells into proliferating red blood cell presursors. This assay measures the ability of test peptides to stimulate the proliferation and differentiation of red blood cell precursors from primary human bone marrow pluripotent stem cells.
For this assay, serial dilutions of test peptide are made in IMDM medium (Gibco) supplemented with 10% FBS (Hyclone). […] The methylcellulose and peptide mixture is then vortexed thoroughly. Aliquots (100,000 cells/mL) of human, bone marrow derived CD34+ cells (Poietics/Cambrex) are thawed. The thawed cells are gently added to 0.1 mL of 1 mg/ml DNAse (Stem Cells) in a 50 mL tube. Next, 40-50 mL IMDM medium is added gently to cells: the medium is added drop by drop along the side of the 50 mL tube for the first 10 mL, and then the remaining volume of medium is slowly dispensed along the side of the tube. The cells are then spun at 900 rpm for 20 min, and the media removed carefully by gentle aspiration. The cells are resuspended in 1 ml of IMDM medium and the cell density per mL is counted on hemacytometer slide (10 μL aliquot of cell suspension on slide, and cell density is the average count×10,000 cells/ml). The cells are then diluted in IMDM medium to a cell density of 15,000 cells/mL. A 100 μL of diluted cells is then added to each 1.5 mL methyl cellulose plus peptide sample (final cell concentration in assay media is 1000 cells/mL), and the mixture is vortexed. Allow the bubbles in the mixture to disappear, and then aspirate 1 mL using blunt-end needle. Add 0.25 mL aspirated mixture from each sample into each of 4 wells of a 24-well plate (Falcon brand). Incubate the plated mixtures at 37° C. under 5% CO2 in a humid incubator for 14 days. Score for the presence of erythroid colonies using a phase microscope (5×-10× objective, final magnification of 100×).
EPO-R signaling stimulates the differentiation of bone marrow stem cells into proliferating red blood cell precursors. […]

EPO-R = target: T1, EPO-R (Homo sapiens, UniProt P19235); experiment: Competitive binding assay (AlphaQuest bead proximity, AQ); settings: Table 2; competition with biotinylated EPO-R-binding peptide tracer
T1 construct: made in house; host or cells: Chinese Hamster Ovary cells
T1 sequence (P19235 25-250 limits assumed): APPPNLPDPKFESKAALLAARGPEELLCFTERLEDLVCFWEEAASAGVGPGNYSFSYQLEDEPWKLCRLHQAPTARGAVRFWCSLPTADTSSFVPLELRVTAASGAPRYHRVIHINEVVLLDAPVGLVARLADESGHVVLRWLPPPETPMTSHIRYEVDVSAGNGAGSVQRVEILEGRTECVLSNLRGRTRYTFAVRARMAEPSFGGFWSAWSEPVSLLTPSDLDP
Description: Competitive binding calculations are made using an assay in which a light signal is generated as a function of the proximity of two beads: a streptavidin donor bead bearing a biotinylated EPO-R-binding peptide tracer and an acceptor bead to which is bound EPO-R. Light is generated by non-radiative energy transfer, during which a singlet oxygen is released from a first bead upon illumination, and contact with the released singlet oxygen causes the second bead to emit light. These bead sets are commercially available (Packard). Bead proximity is generated by the binding of the EPO-R-binding peptide tracer to the EPO-R. A test peptide that competes with the EPO-R-binding peptide tracer for binding to EPO-R will prevent this binding, causing a decrease in light emission.
In more detail the method is as follows: Add 4 μL of serial dilutions of the test EPO-R agonist peptide, or positive or negative controls, to wells of a 384 well plate. Thereafter, add 2 μL/well of receptor/bead cocktail. […]
Centrifuge 1 min to mix. […] After 18 hours read light emission using an AlphaQuest reader (Packard). […]

Substance	EC50 [1] [nM]	EC90 [2] [nM]	IC50 (EPO-R) [nM]
peptide dimer of monomers (AcG)GLYACHMGPIT(1-nal)VCQPLR(MeG) (SEQ ID NO: 3) [Peptide III] (Ac-GGLYACHMGPIT[1Nal]VCQPLR[Sar]; disulfide 6-15 (inferred); not fully specified (residue 1); printed as (AcG)GLYACHMGPIT(1-nal)VCQPLR(MeG); also: homodimer, dimer linkage not given here)	0.15	2.7	–
peptide dimer of monomers (AcG)GLYACHMGPIT(1-nal)VCQPLR(MeG) (SEQ ID NO: 3) [Peptide II] (Ac-GGLYACHMGPIT[1Nal]VCQPLR[Sar]; disulfide 6-15 (inferred); not fully specified (residue 1); printed as (AcG)GLYACHMGPIT(1-nal)VCQPLR(MeG); also: homodimer, dimer linkage not given here)	–	2.2	0.11
